Values quoted from earlier work, collected in patent US11229230B2, “Antioxidant-enriched multivitamin composition and methods of use” (Callion Pharma, LLC, priority 2016, dated 2022).

Experiments:
cystic fibrosis = settings: oral treatment, Phase II clinical study
cystic fibrosis patients = settings: inhaled

Compound | lung function (cystic fibrosis) | effectiveness in cystic fibrosis (cystic fibrosis patients)
CC(=O)N[C@@H](CS)C(=O)O [N-acetylcysteine] | did not improve lung function | 
N[C@@H](CCC(=O)N[C@@H](CS)C(=O)NCC(=O)O)C(=O)O [glutathione] |  | has not been effective
